These results are taken from ChEMBL document CHEMBL4699616, “Novel deoxyvasicinone and tetrahydro-beta-carboline hybrids as inhibitors of acetylcholinesterase and amyloid beta aggregation” (Bioorg Med Chem Lett, 2020).

The target of data set [1] is T1, Acetylcholinesterase (Homo sapiens, UniProt P22303). Kind of data set: Inhibition of human erythrocytes AChE by Ellman's method. Format: cell-based, Erythrocyte. For orientation: In Ellman's method for cholinesterases, released thiocholine reacts with DTNB.
Data set [2] concerns the target T2, Cholinesterase (Homo sapiens, UniProt P06276).
Description: Inhibition of human serum BuChe by Ellman's method
Data set [3] deals with T3, Amyloid-beta precursor protein (Homo sapiens, UniProt P05067). Kind of data set: Inhibition of amyloid beta (1 to 42) (unknown origin) self aggregation at 20 uM incubated for 48 hrs by thioflavin-T fluorescence method relative to control.
The test system of data set [4] is SH-SY5Y. Kind of data set: Cytotoxicity against human SH-SY5Y cells assessed as effect on cell viability at 0.1 uM after 48 hrs by MTT assay. Format: cell-based. A general note: Tetrazolium dyes change colour on reduction, which living cells bring about.
Data set [5] has as its target T3, Amyloid-beta precursor protein.
Description: Inhibition of amyloid beta (1 to 42) (unknown origin) self aggregation incubated for 48 hrs by thioflavin-T fluorescence method
The subject of data set [6] is SH-SY5Y. As to the kind of experiment: Neuroprotective activity against amyloid beta (1 to 42) induced cell damage in human SH-SY5Y cells assessed as increase in cell viability at 1 to 10 uM measured after 48 hrs. Format: functional, cell-based. To be noted: dose microM 1-10, time 48.0 hrs.
Data set [7] is described as follows: Cytotoxicity against human SH-SY5Y cells assessed as cell viability at 10 uM after 48 hrs by MTT assay relative to control. It is filed as cell-based. To be noted: read-out: Activity.
In data set [8] the target is T1, Acetylcholinesterase. Kind of data set: Inhibition of human erythrocytes AChE at 1 uM by Ellman's method relative to control. Format: cell-based. To be noted: Erythrocyte.
The target in data set [9] is T2, Cholinesterase. Kind of data set: Inhibition of human serum BuChe at 1 uM by Ellman's method relative to control. Format: cell-free.
In data set [10] the test system is SH-SY5Y. Kind of data set: Cytotoxicity against human SH-SY5Y cells assessed as effect on cell viability at 0.1 to 1 uM after 48 hrs by MTT assay. Format: cell-based. The following applies: dose 0.1-1 µM.
Data set [11] addresses T3, Amyloid-beta precursor protein. Kind of data set: Potency index, ratio of resveratrol IC50 to test compound IC50 for inhibition of amyloid beta (1 to 42) (unknown origin) self aggregation.
Data set [12] relates to SH-SY5Y. As to the kind of experiment: Neuroprotective activity against amyloid beta (1 to 42) induced cell damage in human SH-SY5Y cells assessed as increase in cell viability at 0.1 uM measured after 48 hrs. It is filed as functional, cell-based.
For data set [13], the target named is T1, Acetylcholinesterase. Kind of data set: Inhibition of human erythrocytes AChE using acetylthiocholine iodide as substrate preincubated for 4.5 mins followed by substrate addition measured after 2.5 mins by Ellman's method. Also noted: species or system Erythrocyte.

Active and inactive are the calls of the source. The calls are words filed in the database; no cut-off is given here.

T2 sequence (P06276 whole entry): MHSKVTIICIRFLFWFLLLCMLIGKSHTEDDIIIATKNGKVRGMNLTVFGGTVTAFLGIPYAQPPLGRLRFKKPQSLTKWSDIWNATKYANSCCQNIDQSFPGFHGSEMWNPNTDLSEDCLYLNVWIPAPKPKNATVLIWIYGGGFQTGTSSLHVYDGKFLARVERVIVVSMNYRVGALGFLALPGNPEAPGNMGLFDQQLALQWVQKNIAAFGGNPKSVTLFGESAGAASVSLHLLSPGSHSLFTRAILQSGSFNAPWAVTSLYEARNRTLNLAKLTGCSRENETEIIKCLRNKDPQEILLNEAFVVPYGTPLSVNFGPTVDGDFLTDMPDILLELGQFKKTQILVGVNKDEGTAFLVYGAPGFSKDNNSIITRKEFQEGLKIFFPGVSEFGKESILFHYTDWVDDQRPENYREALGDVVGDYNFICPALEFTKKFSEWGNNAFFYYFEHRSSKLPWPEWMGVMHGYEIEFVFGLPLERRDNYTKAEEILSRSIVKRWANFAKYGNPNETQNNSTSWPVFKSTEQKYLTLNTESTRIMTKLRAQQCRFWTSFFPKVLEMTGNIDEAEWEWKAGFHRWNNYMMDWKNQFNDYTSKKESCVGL
T1 sequence (P22303 whole entry): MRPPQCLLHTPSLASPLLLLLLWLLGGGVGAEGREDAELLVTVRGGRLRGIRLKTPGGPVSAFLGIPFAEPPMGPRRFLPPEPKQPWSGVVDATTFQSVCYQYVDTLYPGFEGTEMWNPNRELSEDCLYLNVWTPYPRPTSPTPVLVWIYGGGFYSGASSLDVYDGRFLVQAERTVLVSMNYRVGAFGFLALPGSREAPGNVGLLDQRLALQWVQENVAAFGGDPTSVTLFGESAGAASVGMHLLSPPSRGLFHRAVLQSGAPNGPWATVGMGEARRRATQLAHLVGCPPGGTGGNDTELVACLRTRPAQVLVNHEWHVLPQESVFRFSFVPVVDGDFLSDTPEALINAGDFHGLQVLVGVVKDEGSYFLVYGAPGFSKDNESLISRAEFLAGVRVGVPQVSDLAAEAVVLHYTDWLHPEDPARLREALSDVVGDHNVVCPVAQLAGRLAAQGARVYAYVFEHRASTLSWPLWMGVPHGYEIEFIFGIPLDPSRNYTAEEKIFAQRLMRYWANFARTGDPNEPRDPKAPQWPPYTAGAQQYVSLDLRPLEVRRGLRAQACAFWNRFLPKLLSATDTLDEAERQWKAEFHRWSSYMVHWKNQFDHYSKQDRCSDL
T3 sequence (P05067 whole entry): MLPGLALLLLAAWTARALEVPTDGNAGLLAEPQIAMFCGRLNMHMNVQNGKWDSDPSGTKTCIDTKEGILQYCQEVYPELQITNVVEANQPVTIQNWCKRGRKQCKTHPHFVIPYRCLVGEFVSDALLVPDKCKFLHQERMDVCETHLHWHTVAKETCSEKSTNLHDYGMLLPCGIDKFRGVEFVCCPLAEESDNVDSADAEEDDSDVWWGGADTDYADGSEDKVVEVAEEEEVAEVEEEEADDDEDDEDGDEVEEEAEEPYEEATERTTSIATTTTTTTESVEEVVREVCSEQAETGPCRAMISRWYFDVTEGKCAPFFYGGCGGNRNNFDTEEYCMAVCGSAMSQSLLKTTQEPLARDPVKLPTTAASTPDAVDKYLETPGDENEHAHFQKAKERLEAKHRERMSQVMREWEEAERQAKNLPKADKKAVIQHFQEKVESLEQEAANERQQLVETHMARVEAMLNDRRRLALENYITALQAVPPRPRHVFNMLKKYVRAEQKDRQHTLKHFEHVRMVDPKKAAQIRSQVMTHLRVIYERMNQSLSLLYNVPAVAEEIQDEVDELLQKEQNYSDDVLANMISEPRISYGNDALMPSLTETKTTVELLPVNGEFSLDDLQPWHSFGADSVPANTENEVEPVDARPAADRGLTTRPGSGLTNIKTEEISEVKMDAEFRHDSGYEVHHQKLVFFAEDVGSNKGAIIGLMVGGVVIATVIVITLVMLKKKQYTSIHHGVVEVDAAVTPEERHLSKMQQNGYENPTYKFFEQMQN

In the case of `O=C(CCCCN1CCC2c3ccccc3NC2C1)Nc1ccc(/C=C2\CCn3c2nc2ccccc2c3=O)cc1` (stereo not given), the IC50 is 98.3 nM in data set [1] and 32.8 nM in [2]. This molecule displayed an inhibition in data set [3] of 27.9%.

For the molecule `O=C(CCN1CCC2c3ccccc3NC2C1)Oc1ccc(/C=C2\CCn3c2nc2ccccc2c3=O)cc1` (stereo not given), the IC50 in data set [1] was 0.93 nM; in [2] it was 69.2 nM; in data set [5], 19700 nM. For the same molecule, the Activity result in [4] is reported as “Non-Toxic”. Also, the outcome in [6] was Active. Further, the viability at 48 h, 10 µM in [7] was above 76%.

As to `O=C(CN1CCC2c3ccccc3NC2C1)Oc1ccc(/C=C2\CCn3c2nc2ccccc2c3=O)cc1` (stereo not given), the IC50 in data set [1] was 216 nM; in data set [2], 238 nM. The inhibition in data set [3] stood at 38.8%.

For `O=C(CCCCCN1CCC2c3ccccc3NC2C1)Oc1ccc(/C=C2\CCn3c2nc2ccccc2c3=O)cc1` (stereo not given), the IC50 was found to be 10.7 nM in data set [1], 507 nM in data set [2] and 15100 nM in data set [5].

For the molecule `O=C(CCCN1CCC2c3ccccc3NC2C1)Oc1ccc(/C=C2\CCn3c2nc2ccccc2c3=O)cc1` (stereo not given), the IC50 is 16.5 nM in data set [1] and 44.1 nM in [2]. This molecule also returned an inhibition in data set [3] of 41.5%.

Turning to `O=c1c2ccccc2nc2n1CCC2`, the inhibition in data set [3] was 20.7%; in [8], 29.7%; in data set [9], 40.5%.

`O=C(CN1CCC2c3ccccc3NC2C1)Nc1ccc(/C=C2\CCn3c2nc2ccccc2c3=O)cc1` (stereo not given) showed an IC50 in [2] of 596 nM. The inhibition amounted to 37.5% in [3] and 21.6% in data set [8].

For the molecule `O=C(CCN1CCC2c3ccccc3NC2C1)Nc1ccc(/C=C2\CCn3c2nc2ccccc2c3=O)cc1` (stereo not given), the IC50 was 9.75 nM in [1] and 726 nM in data set [2]. Also, in data set [3], the inhibition was 31.6%.

With `O=C(CCCCN1CCC2c3ccccc3NC2C1)Oc1ccc(/C=C2\CCn3c2nc2ccccc2c3=O)cc1` (stereo not given), the figures for the IC50 in data set [1], in [2] and in [5] were 1.08 nM, 422 nM and 2050 nM, respectively. Also, in data set [10], the Activity result was “Non-Toxic”. In addition, the Ratio IC50 in data set [11] was found to be 6. Moreover, the outcome in [6] and in data set [12] was Active. Besides, in [7], the viability at 48 h, 10 µM is above 76%.

Turning to `O=C(CCCN1CCC2c3ccccc3NC2C1)Nc1ccc(/C=C2\CCn3c2nc2ccccc2c3=O)cc1` (stereo not given), the IC50 in data set [2] was 215 nM. Further, the inhibition stood at 21.2% in [3] and 49.9% in data set [8].

The molecule `O=c1c2cc(OCCCN3CCCCC3)ccc2nc2n1CCC2` returned an IC50 in data set [13] of 50 nM.

Regarding `O=C(CCCCCN1CCC2c3ccccc3NC2C1)Nc1ccc(/C=C2\CCn3c2nc2ccccc2c3=O)cc1` (stereo not given), the IC50 in data set [1] amounted to 153 nM; in data set [2], 486 nM; in [5], 18300 nM.

Consider `O=C(O)C1NCCC2c3ccccc3NC12` (stereo not given), for which the inhibition in data set [3] was 20.7%; in [8], 29.7%; in data set [9], 40.5%.

In general, IC50 refers to the concentration that gives 50% inhibition. Usually inhibition stands for the percentage by which the read-out fell short of the control. Read a low inhibition as a weak effect.
